Like-named read-outs stand apart in the source and are kept apart here.
Columns and labels:
Factor VII = Factor VII activity assay, in vivo liver delivery of FVII siRNA LNP; set-up: species or system mouse; conditions: ~48 h
Description: Female CD-1 mice are received from Charles River Labs and maintained on standard lab chow and water ad libitum. The animals weigh approximately 25 grams at time of dosing. Formulated siRNA is administered as a single dose at various dose levels intravenously via the lateral tail vein calculated on a (mg siRNAs/kg) basis according to individual animal weights (10 ml/kg injection volume).
Formulated siRNAs are made up of double stranded siRNA sequences specific to a target mRNA sequence, and are in the form of lipid nucleotid particles (LNPs) containing cationic lipids, stealth lipids and neutral lipids, as provided in the Examples below. The siRNA construct for use in targeting the liver is specific to Factor VII. […] FVII siRNA duplex sequence
Formulated Factor VII siRNA is administered as a single dose at various dose levels intravenously via the lateral tail vein calculated on a mg siRNAs/kg basis according to individual animal weights (10 ml/kg injection volume). Approximately 48 h after injection, the mice are euthanized by CO2 inhalation followed by exsanguinations through the vena cava. […] In some cases, small pieces (˜50 mg) of liver are collected and snap frozen in liquid nitrogen for follow up mRNA quantitation.
An assay standard curve is prepared using pooled plasma aliquots from the vehicle control animals.

[1] = pKa of the lipid by TNS fluorescence; format: physicochemical
Description: Unless explicitly indicated otherwise, all pKas referred to herein are measured in water at standard temperature and pressure. Also, unless otherwise indicated, all references to pKa are references to pKa measured using the following technique.
2 mM solution of lipid in ethanol are prepared by weighing the lipid and then dissolving in ethanol.
This is done with all eight buffers.
Priority: Column priority • Carriage Speed: Normal • Auto read: Off
The normalized fluorescence intensity vs. pH chart is then plotted in the Microsoft Excel software. The eight points are connected with a smooth line.
The pKa determined using this method is precise to about 0.2 pKa units.

[2] = Particle size and PDI by dynamic light scattering (Malvern Zetasizer); format: physicochemical
Description: Unless indicated otherwise, all sizes referred to herein are the average sizes (diameters) of the fully formed nanoparticle, as measured by dynamic light scattering on a Malvern Zetasizer. The nanoparticle sample is diluted in phosphate buffered saline (PBS) so that the count rate is approximately 200-400 kcts. The data is presented as a weighted average of the intensity measure.
The acronym PDI stands for polydispersity index. Unless indicated otherwise, all PDIs referred to herein are the PDI of the fully formed nanoparticle, as measured by dynamic light scattering on a Malvern Zetasizer. The nanoparticle sample is diluted in phosphate buffered saline (PBS) so that the count rate is approximately 200-400 kcts.

[3] = dose 3 mg/kg siRNA i.v., lipid/DSPC/CHOL/AVANTI 880150P 50/28/18/4, N/P 3.43
[4] = dose 3 mg/kg siRNA i.v., lipid/no neutral lipid/CHOL/AVANTI 880150P 50/0/46/4, N/P 3.43
[5] = lipid/DSPC/CHOL/AVANTI 880150P 50/28/18/4, N/P 3.43
[6] = lipid/no neutral lipid/CHOL/AVANTI 880150P 50/0/46/4, N/P 3.43
[7] = dose 1 mg/kg siRNA i.v., lipid/no neutral lipid/CHOL/GM-020 NOF 60/0/36/4, N/P 3
[8] = lipid/no neutral lipid/CHOL/GM-020 NOF 60/0/36/4, N/P 3
[9] = lipid/DSPC/CHOL/AVANTI 880150P 30/30/36/4, N/P 2.3
[10] = lipid/DSPC/CHOL/AVANTI 880150P 25/28/18/4, N/P 1.9

| Structure (SMILES) | FVII inhib % (Factor VII; [3]) | FVII inhib % (Factor VII; [4]) | pKa ([1]; pKa) | Final size (nm) [2, 5] | PDI [2, 5] | Final size (nm) [2, 6] | PDI [2, 6] | other results |
| --- | --- | --- | --- | --- | --- | --- | --- | --- |
| CCCCC/C=C\C/C=C\CCCCCCCCOCC(CN1CC[C@@H]2CCCC[C@H]2C1)OCCOCCO[C@H]1CC[C@@]2(C)C(=CCC3C2CC[C@@]2(C)C3CC[C@@H]2[C@H](C)CCCC(C)C)C1 (some centres unmarked) [E0020] | 62.4% | 51.4% | 6.08 | 83 nm | 0.138 | 81 nm | 0.084 | – |
| CCCCC/C=C\C/C=C\CCCCCCCCCCOCC(CN1CCCCC1)OCCO[C@H]1CC[C@@]2(C)C(=CC[C@H]3[C@@H]4CC[C@H]([C@H](C)CCCC(C)C)[C@@]4(C)CC[C@@H]32)C1 (some centres unmarked) [E0069] | – | – | 6.07 | – | – | – | – | FVII inhib % (Factor VII; [7]): 29%; Final size (nm) [2, 8]: 113.4 nm; PDI [2, 8]: 0.199 |
| CCCCCCCC/C=C\CCCCCCCCOCC(CN1CCCC1C)OCCCOCCCO[C@H]1CC[C@@]2(C)C(=CC[C@H]3[C@@H]4CC[C@H]([C@H](C)CCCC(C)C)[C@@]4(C)CC[C@@H]32)C1 (some centres unmarked) [E0094] | – | – | 5.91 | – | – | – | – | FVII inhib % (Factor VII; [7]): 36.3%; Final size (nm) [2, 8]: 115.5 nm; PDI [2, 8]: 0.076 |
| CCCCC/C=C\C/C=C\CCCCCCCCOCC(CN1CC[C@H]2OC(C)(C)O[C@H]2C1)OCCOCCO[C@H]1CC[C@@]2(C)C(=CCC3C2CC[C@@]2(C)C3CC[C@@H]2[C@H](C)CCCC(C)C)C1 (some centres unmarked) [E0009] | 38.4% | 6.9% | 4.89 | 83 nm | 0.2 | 82 nm | 0.16 | – |
| CCCCC/C=C\C/C=C\CCCCCCCCOCC(CN1CCCC1C)OCCOCCOCCOCCO[C@H]1CC[C@@]2(C)C(=CC[C@H]3[C@@H]4CC[C@H]([C@H](C)CCCC(C)C)[C@@]4(C)CC[C@@H]32)C1 (some centres unmarked) [E0084] | – | – | 7.27 | – | – | – | – | FVII inhib % (Factor VII; [7]): 60.7%; Final size (nm) [2, 8]: 112.1 nm; PDI [2, 8]: 0.1 |
| CCCCCCCC/C=C\CCCCCCCCOCC(CN1CCOCC1)OCCOCCOC(=O)CO[C@H]1CC[C@@]2(C)C(=CC[C@H]3[C@@H]4CC[C@H]([C@H](C)CCCC(C)C)[C@@]4(C)CC[C@@H]32)C1 (some centres unmarked) [E0125] | – | – | 5.53 | – | – | – | – | Final size (nm) ([2]; LNP formulation with PLK1 siRNA, helper, neutral and stealth lipid, molar ratio and N/P as in the table, stealth lipid S004, molar ratio 50/38/10/2, N/P 4): 101.5 nm; Final size (nm) ([2]; LNP formulation with PLK1 siRNA, helper, neutral and stealth lipid, molar ratio and N/P as in the table, stealth lipid S004, molar ratio 50/43/5/2, N/P 4): 92.84 nm; Final size (nm) ([2]; LNP formulation with PLK1 siRNA, helper, neutral and stealth lipid, molar ratio and N/P as in the table, stealth lipid S004, molar ratio 50/48/2, N/P 4): 94.13 nm |
| CCCCC/C=C\C/C=C\CCCCCCCCOC[C@@H](CN1CCCCC1)OCCOCCO[C@H]1CC[C@@]2(C)C(=CCC3C2CC[C@@]2(C)C3CC[C@@H]2[C@H](C)CCCC(C)C)C1 (some centres unmarked) [E0034] | 81.3% | 88.1% | – | 99 nm | 0.16 | 99 nm | 0.16 | – |
| CCCCC/C=C\C/C=C\CCCCCCCCOCC(CN1CCSCC1)OCCOCCO[C@H]1CC[C@@]2(C)C(=CCC3C2CC[C@@]2(C)C3CC[C@@H]2[C@H](C)CCCC(C)C)C1 (some centres unmarked) [E0031] | 36.7% | 27.1% | 4.8 | 108 nm | 0.23 | 65 nm | 0.11 | – |
| CCCCC/C=C\C/C=C\CCCCCCCCOCC(CN1CCC[C@@H]1COC)OCCOCCO[C@H]1CC[C@@]2(C)C(=CC[C@H]3C4CC[C@H]([C@H](C)CCCC(C)C)[C@@]4(C)CC[C@@H]32)C1 (some centres unmarked) [E0037] | 69.3% | 66.2% | – | 96 nm | 0.24 | 117 nm | 0.1 | – |
| CCCCC/C=C\C/C=C\CCCCCCCCOCC(CN1CC2CCCC2C1)OCCOCCO[C@H]1CC[C@@]2(C)C(=CC[C@H]3[C@@H]4CC[C@H]([C@H](C)CCCC(C)C)[C@@]4(C)CC[C@@H]32)C1 (some centres unmarked) [E0022] | 49.4% | 87.8% | – | 93 nm | 0.143 | 84 nm | 0.192 | – |
| CCCCC/C=C\C/C=C\CCCCCCCCOCC(CN1CCCCC1)OCCOCCOC(=O)O[C@H]1CC[C@@]2(C)C(C=CC3C2CC[C@@]2(C)C3CC[C@@H]2[C@H](C)CCCC(C)C)C1 (some centres unmarked) [E0056] | – | – | 6.33 | – | – | – | – | pKa [1]: 5.84 |
| CCCCC/C=C\C/C=C\CCCCCCCCOCC(CN1CCNCC1)OCCOCCO[C@H]1CC[C@@]2(C)C(=CC[C@H]3[C@@H]4CC[C@H]([C@H](C)CCCC(C)C)[C@@]4(C)CC[C@@H]32)C1 (some centres unmarked) [E0012] | – | – | – | – | – | – | – | FVII inhib % (Factor VII; dose 3 mg/kg siRNA i.v., lipid/DSPC/CHOL/AVANTI 880150P 30/30/36/4, N/P 2.3): 9.3%; Final size (nm) [2, 9]: 220 nm; PDI [2, 9]: 0.105 |
| CCCCC/C=C\C/C=C\CCCCCCCCOCC(CN1CCC(CCOC)CC1)OCCOCCO[C@H]1CC[C@@]2(C)C(=CCC3C2CC[C@@]2(C)C3CC[C@@H]2[C@H](C)CCCC(C)C)C1 (some centres unmarked) [E0033] | – | 15.3% | – | – | – | 105 nm | 0.05 | FVII inhib % (Factor VII; dose 3 mg/kg siRNA i.v., lipid/DSPC/CHOL/AVANTI 880150P 25/28/18/4, N/P 1.9): −36.4%; Final size (nm) [2, 10]: 161 nm; PDI [2, 10]: 0.16 |
| CCCCC/C=C\C/C=C\CCCCCCCCOCC(CN1CCC(F)(F)CC1)OCCOCCO[C@H]1CC[C@@]2(C)C(=CCC3C2CC[C@@]2(C)C3CC[C@@H]2[C@H](C)CCCC(C)C)C1 (some centres unmarked) [E0170] | 9.3% | 14.3% | – | 133 nm | 0.095 | 170 nm | 0.05 | – |
| CCCCC/C=C\C/C=C\CCCCCCCCOCC(CN1CCN(C(=O)OC(C)(C)C)CC1)OCCOCCO[C@H]1CC[C@@]2(C)C(=CC[C@H]3[C@@H]4CC[C@H]([C@H](C)CCCC(C)C)[C@@]4(C)CC[C@@H]32)C1 (some centres unmarked) [E0002] | 10.4% | – | – | 109 nm | 0.221 | – | – | FVII inhib % (Factor VII; dose 1 mg/kg siRNA i.v., lipid/DSPC/CHOL/AVANTI 880150P 50/28/18/4, N/P 3.43): −0.3% |
| CCCCC/C=C\C/C=C\CCCCCCCCOCC(CN1CCC(OC)CC1)OCCOCCO[C@H]1CC[C@@]2(C)C(=CCC3C2CC[C@@]2(C)C3CC[C@@H]2[C@H](C)CCCC(C)C)C1 (some centres unmarked) [E0005] | 12.2% | – | – | 168 nm | 0.069 | 146 nm | 0.07 | – |
| CCCCC/C=C\C/C=C\CCCCCCCCOCC(CN1CCC(N2CCOCC2)C1)OCCOCCO[C@H]1CC[C@@]2(C)C(=CC[C@H]3[C@@H]4CC[C@H]([C@H](C)CCCC(C)C)[C@@]4(C)CC[C@@H]32)C1 (some centres unmarked) [E0038] | −2.4% | −6.2% | – | 116 nm | 0.25 | 115 nm | 0.08 | – |
| CCCCC/C=C\C/C=C\CCCCCCCCOCC(CN1CCCCC1)OCCNC(=O)O[C@H]1CC[C@@]2(C)C(=CC[C@H]3[C@@H]4CC[C@H]([C@H](C)CCCC(C)C)[C@@]4(C)CC[C@@H]32)C1 (some centres unmarked) [E0102] | – | – | 6.31 | – | – | – | – | Final size (nm) ([2]; LNP formulation with PLK1 siRNA, helper, neutral and stealth lipid, molar ratio and N/P as in the table): 94.69 nm |
